From publication PMC5729429, “Gimatecan exerts potent antitumor activity against gastric cancer in vitro and in vivo via AKT and MAPK signaling pathways” (Journal of Translational Medicine, 2017)

System: NCI-N87 cells
Assay: Annexin V-PE/7-AAD apoptosis assay (flow cytometry), NCI-N87
Assay type: cell-based, human
Conditions: 1000 nM, 24 h
Method: Apoptosis was measured by staining with phycoerythrin (PE)-annexin V and 7-amino-actinomycin (7-AAD) (BD Biosciences, Erembodegem, Belgium) for 15 min at room temperature in the dark, followed by flow cytometry (BD Biosciences) within 1 h. Apoptosis was analyzed with FlowJo 7.6 software (FlowJo, LLC, Ashland, Oregon).
Cells were treated with gimatecan (0–1 µM) and irinotecan (0–1 µM) for 24 h and stained with Annexin V-PE/7-AAD. Sums of percentages of early apoptosis (Q3) and late apoptosis (Q2) were calculated as the total apoptosis ratios. c, d Pro- and anti-apoptotic proteins including Bcl-2, Bak, PARP and cleaved PARP were assessed by western-blotting in SNU-1 and NCI-N87 cells. Western-blotting bands were quantified and normalized by ImageJ. […] They are left out because no substance is present, and they are also barely readable.

SMILES: CC[C@@]1(O)C(=O)OCc2c1cc1n(c2=O)Cc2c-1nc1ccccc1c2/C=N/OC(C)(C)C [Gimatecan, 7-t-butoxyiminomethylcamptothecin]
- proportion of apoptotic cells: 12.29 ± 2.24%
